# Experimental data reported in US7569351B2 (Oncotherapy Science, Inc., priority 2000, dated 2009).
# B1: p53AIP1α: p53-dependent apoptosis-associated protein, 124 amino acids, SEQ ID NO: 2, expressed from vector (protein, listed as Homo sapiens)
# chain: MGSSSEASFRSAQASCSGARRQGLGRGDQNLSVMPPNGRAQTHTPGWVSDPLVLGAQVHGGCRGIEALSVSSGSWSSATVWILTGLGLGLSRPFLPGATVLRDRPLGSAFELSYDQKKAPLRLQ
# B2: p53AIP1: p53-regulated Apoptosis Inducing Protein 1, exogenous expression by adenovirus-mediated gene transfer (protein)
# chain: B1 chain
# modifications: left off: small tags and cut ends
# notes: p53-regulated Apoptosis Inducing Protein 1, exogenous expression by adenovirus-mediated gene transfer
# Assays:
# U373MG cells = assay: Antisense inhibition of p53-induced apoptosis (FACS); type: cell-based, human; details: 1 μM oligonucleotide 4 hr, then Ad-p53, 48 hr
# p53AIP1 [1] = assay: Antisense inhibition of p53AIP1 expression (RT-PCR); type: cell-based, human; details: U373MG, 1 μM oligonucleotide 4 hr, then Ad-p53, 48 hr
# mitochondrial ΔΨm [2] = assay: Mitochondrial ΔΨm by Rhodamine 123 in HeLa mock parental cells; type: cell-based, human; details: MOI 100 pfu/cell, 60 hr after infection
# Experimental: (§1) The cells were labeled with Rhodamine 123 at 60 hr after infection, and fluorescence was analyzed by FACScan. The horizontal axis indicates 10^0 at left end, 10^4 at right end, and 10^2 at center, respectively.
# (§2) Next, the mitochondrial ΔΨm itself was analyzed. Detection of mitochondrial membrane potential was performed as follows. […] Sixty hours after infection, adherent and floating cells were collected by trypisinization, and washed twice with cold PBS. Rhodamine 123 (10 nM) in PBS was added to the cells, and were incubated for 30 min at 37° C. Fluorescence was measured by flow cytometry.
# p21^Waf1 = assay: Induction of p21Waf1 by DNA damage in NHDF (RT-PCR); type: cell-based, human; details: adriamycin 0.2 μg/ml
# Experimental: (§3) Expression of the GAPDH gene was determined as a quantity control. p53AIP1 and p21/WAF1 expression induced by γ irradiation (IR) and adriamycin treatment (ADR) is analyzed.
# (§4) DNA-damaging treatment was performed as follows.
# (§5) Cells were inoculated 24 hr before treatment, and grown to 60% to 70% confluency. NHDF and SW480 cells were continuously treated with adriamycin (doxorubicin) at a concentration of 0.2 μg/ml or were treated with γ-ray irradiation at about 1 Gy/min (14 Gy).
# p53AIP1 [3] = assay: Induction of endogenous p53AIP1 by DNA damage in NHDF (RT-PCR); type: cell-based, human; details: adriamycin 0.2 μg/ml
# Experimental: as §3, §4, §5
# p53AIP1 [4] = assay: Antisense inhibition of p53AIP1 expression in MCF7 (Western blotting); type: cell-based, human; details: MCF7, AS 1 μM, after UV irradiation, compared with sense oligonucleotide
# Text: (§6) FIG. 17 presents photographs showing the expression of p53AIP1 protein in the mitochondria, and the function of p53AIP1 protein in apoptosis induced by UV or STS. […] Twenty-four hours after STS and UV damage or 48 hr after TNFα damage, p53AIP1 protein and mitochondria in the cells were stained with FITC-conjugated rabbit anti-p53AIP1 antibody and Mito Tracker Red (CMXRos), respectively. The nuclei was visualized by DAPI staining. […] MCF7 cells were transfected with AS or sense oligonucleotides (SE) (1 μM) using Lipofectin reagent (GIBCO-BRL) for 4 hr, and then the cells were damaged by UV irradiation (50 J/m^2). Thirty-six hours after transfection, p53AIP1 expression was evaluated by Western blotting.
# (§7) Next, the intracellular localization of endogenous p53AIP1 during apoptosis through different-pathways was identified. In human breast carcinoma cells MCF7 that were not exposed to any apoptosis stimulator, the expression of p53AIP1 was not detected. […] No staining of p53AIP1 was observed after TNFα treatment (FIG. 17). To confirm the involvement of p53AIP1 in apoptotic processes, experiments using an antisense oligonucleotide (AS) corresponding to the p53AIP1 gene were performed. […] After 36 hr from the treatment, apoptotic cells were analyzed by FACS and TUNEL analysis.
# MCF7 cells = assay: Antisense effect on apoptosis in MCF7 (FACS sub-G1); type: cell-based, human; details: MCF7, AS 1 μM
# Experimental: MCF7 cells were transfected with AS or SE (1 μM) using Lipofectin reagent (GIBCO-BRL) for 4 hr, and treated with UV irradiation, STS or TNFα.
# Cells were plated 24 hr before apoptosis-inducing treatment, and grown to 60%-70% confluency at the time of treatment. To test whether the expression of p53AIP1 in response to apoptotic stresses, MCF7 (breast carcinoma) cells were continuously incubated with staurosporine or TNFα, or were treated with UV at given dosages (J/m^2) using a UV cross-linker (Stratagene). Floating and adherent cells were collected, and subjected to analyses by Western blotting, FACS, and RT-PCR analysis. For FACS analysis, adherent and detached cells were combined and fixed with 75% ethanol at 4° C. After rinsed twice with PBS, cells were incubated at 37° C. for 30 min with 1 ml PBS containing boiled RNase. Cells were then stained in 1 ml PBS containing 10 μg of propidium iodide. The cells (2×10^4 or more) were analyzed in a flow cytometer (FACScalibur; Becton Dickinson) to determine the percentage of sub-G1 nuclei in the cell population. In situ terminal transferase-mediated dUTP nick end-labeling (TUNEL) was performed using Apoptag Direct (Oncor) according to the manufacturer's instructions.
# as §7, with “performed. To inhibit endogenous p53AIP1 expression, antisense oligonucleotide (AS2: […]/SEQ ID NO: 30) and a control sense oligonucleotides (SE2: […]/SEQ ID NO: 31) were designed based on the sequence of the p53AIP1 gene, and then purified by HPLC.” for “performed.”
# p53AIP1 [5] = assay: Immunocytochemical staining of endogenous p53AIP1 in mitochondria; type: cell-based, human; details: MCF7; STS 0.5 μM 24 hr, TNFα 10 ng/ml 48 hr
# Text: as §6
# Incubation times and radiation doses were as follows: for RT-PCR, STS treatment was performed for 24 hr and TNFα and UV, for 48 hr; for Western blotting, STS, for 36 hr and TNFα and UV, for 48 hr; for FACS and TUNEL assays, STS (0.5 μM) and UV (50 J/m^2) for 36 hr and TNFα (10 ng/ml), for 72 hr; and for immunocytochemical analysis, STS (0.5 μM) and UV (50 J/m^2), for 24 hr and TNFα (10 ng/ml) for 48 hr.
# p53AIP1 [6] = assay: p53AIP1 expression after apoptosis stimulators (Western blotting, RT-PCR); type: cell-based, human; details: MCF7 cells
# Experimental: FIG. 15 presents photographs showing the expression of p53AIP1 through different apoptotic pathways, which was detected by Western blotting (A) and semiquantitative RT-PCR (B) analyses. MCF7 cells were collected at 36 hr after STS damage and 48 hr after UV or TNFα damage for Western blotting analysis, or 24 hr after STS damage, and 48 hr after UV or TNFα damage for RT-PCR. Expression of β-actin or β2MG serves as a control.
# Cells were plated 24 hr before apoptosis-inducing treatment, and grown to 60%-70% confluency at the time of treatment. To test whether the expression of p53AIP1 in response to apoptotic stresses, MCF7 (breast carcinoma) cells were continuously incubated with staurosporine or TNFα, or were treated with UV at given dosages (J/m^2) using a UV cross-linker (Stratagene). […] The cells (2×10^4 or more) were analyzed in a flow cytometer (FACScalibur; Becton Dickinson) to determine the percentage of sub-G1 nuclei in the cell population. […]
# For RT-PCR analysis, total RNA was first isolated from cells using the RNeasy spin column kit (QIAGEN) according to the manufacturer's instructions. cDNAs were synthesized from 5 μg of total RNA using SuperScript Pre-amplification System (GIBCO-BRL). The exponential phase was determined for RT-PCR within 15 cycles to 30 cycles to allow semiquantitative comparisons among cDNAs derived from identical reactants. […]
# mitochondrial ΔΨm [7] = assay: Mitochondrial ΔΨm by Rhodamine 123 in HeLa cells overexpressing bcl-2; type: cell-based, human; details: both HeLa cell lines overexpressing bcl-2, 60 hr after infection
# Experimental: as §1, §2
# T98G cells = assay: TUNEL analysis after transfection of expression vectors; type: cell-based, human; details: harvested 48 hr after transfection
# Experimental: To investigate whether introduction of exogenous p53AIP1 could indeed induce apoptotic cell death, in situ terminal transferase-mediated dUTP nick end-labeling (TUNEL) analysis was performed. […] TUNEL analysis was performed using Apotag Direct ([…]) according to the manufacturer's instructions. […] DNA fragments were evaluated using the ApoAlert LM-PCR ladder assay kit (Clontech) according to the manufacturer's instructions.
# mitochondrial ΔΨm [8] = assay: Mitochondrial membrane potential by Mitotracker Red CMXRos; type: cell-based; details: 24 hr after transfection
# Experimental: To evaluate the mitochondrial membrane potential, cells were incubated in culture media containing […] Mitotracker Red CMXRos (Molecular Probes) at 37° C. for 30 min, and then fixed to be labeled with a longer wavelength (579 nm to 599 nm) fluorescence emission.
# WTp53 cancer cell lines = assay: Anti-tumor effect in vitro, nine cancer cell lines containing wild-type p53; type: cell-based, human
# Experimental: Apoptotic cells were analyzed by FACScan at 96 hr after infection.
molecule,measurement,setting,value
"GATCCCATCCAGGGGA (listed as DNA, chemistry not given here) [AS1]",inhibition of the induction of p53-induced apoptosis,U373MG cells,significantly inhibited
same,inhibition of the induction of p53AIP1 expression,p53AIP1 [1],significantly inhibited
"GGAGGCAGGTGAGGAG (listed as DNA, chemistry not given here) [SE1, reference compound]",inhibition of the induction of p53-induced apoptosis,U373MG cells,not
same,inhibition of the induction of p53AIP1 expression,p53AIP1 [1],not
"LacZ: exogenous LacZ expressed from Ad-LacZ, control [reference compound]",down-regulation of mitochondrial ΔΨm,mitochondrial ΔΨm [2],did not
"COc1cccc2c1C(=O)c1c(O)c3c(c(O)c1C2=O)C[C@@](O)(C(=O)CO)C[C@@H]3O[C@H]1C[C@H](N)[C@H](O)[C@H](C)O1 [adriamycin, adriamycin (doxorubicin)]",time of maximum p21^Waf1 expression,p21^Waf1,6 h
same,time of maximum levels of p53AIP1,p53AIP1 [3],24 h
TCCCCTGGATGGGATC (chemistry not given here) [AS2],reduction in the p53AIP1 expression level,p53AIP1 [4],50%
same,inhibition of cell death induced by TNFα,MCF7 cells; TNFα 10 ng/ml,did not inhibit
same,"apoptotic (sub-G1) cell population, second pair","MCF7 cells; reduced from 33%, after UV irradiation",16%
same,"apoptotic (sub-G1) cell population, first pair","MCF7 cells; reduced from 37%, stimulus not clearly printed",28%
"CN[C@@H]1C[C@H]2O[C@@](C)([C@@H]1OC)n1c3ccccc3c3c4c(c5c6ccccc6n2c5c31)C(=O)NC4 [STS, staurosporine]",staining of p53AIP1 in the mitochondria,p53AIP1 [5],intense staining
same,expression of p53AIP1 during apoptotic induction,p53AIP1 [6],increased significantly in a dose-dependent manner
TNFα,staining of p53AIP1 in the mitochondria,p53AIP1 [5],No staining
B1,down-regulation of mitochondrial ΔΨm with bcl-2 overexpression,mitochondrial ΔΨm [7],blocked
same,transfected T98G cells undergoing apoptosis (TUNEL),T98G cells,more than half
same,down-regulation of mitochondrial ΔΨm,mitochondrial ΔΨm [2],down-regulated
same,dissipation of mitochondrial ΔΨm,mitochondrial ΔΨm [8],Almost all cells
B2,induction of apoptosis in WTp53 cancer cell lines,"WTp53 cancer cell lines; nine lines tested, adenovirus-mediated gene transfer, 96 hr",effectively induced apoptosis in six of the WTp53 cancer cell lines
same,cell killing compared with p53,WTp53 cancer cell lines; the six responsive WTp53 lines,four of the six cell lines were killed more effectively
